ChEMBL document CHEMBL1201862, “PubChem BioAssay data set” (2004)
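Grown in 96-well plates, cells were treated for 48 hours with each compound at five concentrations. Insufficient inhibition: endpoint recorded as highest concentration tested. GI50: concentration for 50% inhibition of growth.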 Activity calls are given as the source filed them. No stated cut-off is given here; in the data, active = GI50 up to about 1.1 µM and inactive = higher.

Key:
Assay in all cases: NCI-60 cell line screen, 48 h
OVCAR-5 = tested on: OVCAR-5
KM12 = tested on: KM12
SK-MEL-5 = tested on: SK-MEL-5
SR = tested on: SR
SK-MEL-2 = tested on: SK-MEL-2
SN12C = tested on: SN12C
CAKI-1 = tested on: CAKI-1
OVCAR-8 = tested on: OVCAR-8
MDA-MB-231 = tested on: MDA-MB-231
HOP-92 = tested on: HOP-92
SF-295 = tested on: SF-295
NCI-H226 = tested on: NCI-H226
HCT-15 = tested on: HCT-15
786-0 = tested on: 786-0
LOX IMVI = tested on: LOX IMVI
SF-268 = tested on: SF-268
SK-MEL-28 = tested on: SK-MEL-28
SF-539 = tested on: SF-539
A549 = tested on: A549
Hs-578T = tested on: Hs-578T
SK-OV-3 = tested on: SK-OV-3
MOLT-4 = tested on: MOLT-4
COLO 205 = tested on: COLO 205
U-251 = tested on: U-251
TK-10 = tested on: TK-10
SW-620 = tested on: SW-620
DU-145 = tested on: DU-145
K562 = tested on: K562
HL-60 = tested on: HL-60
OVCAR-3 = tested on: OVCAR-3
MCF7 = tested on: MCF7
MDA-MB-435 = tested on: MDA-MB-435
EKVX = tested on: EKVX
HCC 2998 = tested on: HCC 2998
NCI-H460 = tested on: NCI-H460
CCRF-CEM = tested on: CCRF-CEM
HOP-62 = tested on: HOP-62
NCI-H522 = tested on: NCI-H522
IGROV-1 = tested on: IGROV-1
BT-549 = tested on: BT-549
Malme-3M = tested on: Malme-3M
RXF 393 = tested on: RXF 393
HT-29 = tested on: HT-29
ACHN = tested on: ACHN
SNB-75 = tested on: SNB-75
A498 = tested on: A498
UACC-62 = tested on: UACC-62
UACC-257 = tested on: UACC-257
HCT-116 = tested on: HCT-116
PC-3 = tested on: PC-3
T47D = tested on: T47D
NCI/ADR-RES = tested on: NCI/ADR-RES
UO-31 = tested on: UO-31
OVCAR-4 = tested on: OVCAR-4
NCI-H23 = tested on: NCI-H23
MDA-N = tested on: MDA-N
RPMI-8226 = tested on: RPMI-8226
SNB-19 = tested on: SNB-19
M14 = tested on: M14

Measured: GI50

CCOP(=O)(CC1CC(O)(CNc2cc(Cl)nc(N)n2)C1)OCC (stereo not given)
> 100 µM: HCT-15
inactive: OVCAR-5 > 100 µM | KM12 > 100 µM | SK-MEL-5 > 100 µM | SR > 100 µM | SK-MEL-2 > 100 µM | SN12C > 100 µM | CAKI-1 > 100 µM | OVCAR-8 > 100 µM | MDA-MB-231 > 100 µM | HOP-92 > 100 µM | SF-295 > 100 µM | NCI-H226 > 100 µM | 786-0 > 100 µM | LOX IMVI > 100 µM | SF-268 > 100 µM | SK-MEL-28 > 100 µM | SF-539 > 100 µM | A549 > 100 µM | Hs-578T > 100 µM | SK-OV-3 > 100 µM | MOLT-4 > 100 µM | COLO 205 > 100 µM | U-251 > 100 µM | TK-10 > 100 µM | SW-620 > 100 µM | DU-145 > 100 µM | K562 > 100 µM | HL-60 > 100 µM | OVCAR-3 > 100 µM | MCF7 > 100 µM | MDA-MB-435 > 100 µM | EKVX > 100 µM | HCC 2998 > 100 µM | NCI-H460 > 100 µM | CCRF-CEM > 100 µM | HOP-62 > 100 µM | NCI-H522 > 100 µM | IGROV-1 > 100 µM | BT-549 > 100 µM | Malme-3M > 100 µM | RXF 393 > 100 µM | HT-29 > 100 µM | ACHN > 100 µM | SNB-75 > 100 µM | A498 > 100 µM | UACC-62 > 100 µM | UACC-257 > 100 µM | HCT-116 > 100 µM | PC-3 > 100 µM | T47D 98.9 µM | NCI/ADR-RES > 100 µM | UO-31 > 100 µM | OVCAR-4 > 100 µM | NCI-H23 > 100 µM | MDA-N > 100 µM | RPMI-8226 > 100 µM

N=C(N)N/N=C/c1c(-c2ccc(N)cc2)nc2sccn12
inactive: OVCAR-5 21.4 µM | KM12 21.2 µM | SK-MEL-5 > 100 µM | SR 33.7 µM | SK-MEL-2 30.5 µM | SN12C 21.3 µM | CAKI-1 33.7 µM | OVCAR-8 34.5 µM | MDA-MB-231 21 µM | HOP-92 > 100 µM | SF-295 23.4 µM | NCI-H226 > 100 µM | 786-0 23.9 µM | LOX IMVI 32.9 µM | SF-268 34.7 µM | SK-MEL-28 > 100 µM | SF-539 26.9 µM | A549 21.2 µM | Hs-578T 31.3 µM | SK-OV-3 24.8 µM | MOLT-4 25.4 µM | COLO 205 23.4 µM | U-251 25.4 µM | TK-10 20.9 µM | SW-620 22.8 µM | DU-145 17.5 µM | K562 26.1 µM | HL-60 16.2 µM | OVCAR-3 21.8 µM | MCF7 31.6 µM | MDA-MB-435 26.5 µM | EKVX 24.7 µM | SNB-19 23.2 µM | NCI-H460 26.4 µM | CCRF-CEM 26.8 µM | HOP-62 26.5 µM | NCI-H522 26.5 µM | IGROV-1 60.8 µM | BT-549 35.5 µM | Malme-3M 61 µM | RXF 393 18.2 µM | HT-29 22.7 µM | ACHN 26.9 µM | M14 24.2 µM | A498 25.9 µM | UACC-62 > 100 µM | UACC-257 > 100 µM | HCT-116 23.3 µM | PC-3 22.5 µM | T47D 21.1 µM | NCI/ADR-RES > 100 µM | UO-31 20 µM | OVCAR-4 35.3 µM | NCI-H23 28.1 µM | MDA-N 24.5 µM | RPMI-8226 30.8 µM
36.9 µM: HCT-15

O=C(O)[C@H](c1ccccc1)[C@@H](C(=O)O)c1ccccc1
active: HL-60 0.228 µM
> 100 µM: HCT-15
inactive: OVCAR-5 > 100 µM | KM12 > 100 µM | SK-MEL-5 > 100 µM | SR > 100 µM | SK-MEL-2 > 100 µM | SN12C > 100 µM | CAKI-1 > 100 µM | OVCAR-8 > 100 µM | MDA-MB-231 > 100 µM | HOP-92 > 100 µM | SF-295 > 100 µM | NCI-H226 > 100 µM | 786-0 > 100 µM | LOX IMVI > 100 µM | SF-268 > 100 µM | SK-MEL-28 > 100 µM | SF-539 > 100 µM | A549 > 100 µM | Hs-578T > 100 µM | SK-OV-3 > 100 µM | MOLT-4 > 100 µM | COLO 205 > 100 µM | U-251 > 100 µM | TK-10 > 100 µM | SW-620 > 100 µM | DU-145 > 100 µM | K562 > 100 µM | OVCAR-3 > 100 µM | MCF7 > 100 µM | MDA-MB-435 > 100 µM | EKVX > 100 µM | HCC 2998 > 100 µM | SNB-19 > 100 µM | NCI-H460 > 100 µM | HOP-62 > 100 µM | NCI-H522 > 100 µM | IGROV-1 > 100 µM | BT-549 > 100 µM | Malme-3M > 100 µM | RXF 393 > 100 µM | HT-29 > 100 µM | ACHN > 100 µM | SNB-75 > 100 µM | M14 > 100 µM | A498 > 100 µM | UACC-62 > 100 µM | UACC-257 > 100 µM | HCT-116 > 100 µM | PC-3 > 100 µM | T47D > 100 µM | NCI/ADR-RES > 100 µM | UO-31 > 100 µM | OVCAR-4 > 100 µM | NCI-H23 > 100 µM | MDA-N > 100 µM | RPMI-8226 > 100 µM

COC(=O)c1cnn2c1n[n+]([O-])c1ccccc12
inactive: OVCAR-5 > 100 µM | KM12 > 100 µM | SK-MEL-5 26.9 µM | SR > 100 µM | SK-MEL-2 > 100 µM | SN12C > 100 µM | CAKI-1 > 100 µM | OVCAR-8 > 100 µM | MDA-MB-231 > 100 µM | HOP-92 > 100 µM | SF-295 > 100 µM | NCI-H226 > 100 µM | 786-0 > 100 µM | LOX IMVI > 100 µM | SF-268 > 100 µM | SK-MEL-28 > 100 µM | A549 > 100 µM | Hs-578T > 100 µM | SK-OV-3 > 100 µM | MOLT-4 > 100 µM | COLO 205 85.5 µM | U-251 > 100 µM | TK-10 > 100 µM | SW-620 > 100 µM | DU-145 > 100 µM | K562 > 100 µM | HL-60 68.5 µM | OVCAR-3 25.9 µM | MCF7 > 100 µM | MDA-MB-435 > 100 µM | EKVX > 100 µM | CCRF-CEM > 100 µM | HOP-62 > 100 µM | NCI-H522 > 100 µM | IGROV-1 > 100 µM | BT-549 > 100 µM | Malme-3M > 100 µM | RXF 393 > 100 µM | HT-29 > 100 µM | ACHN > 100 µM | SNB-75 > 100 µM | M14 > 100 µM | A498 30.3 µM | UACC-62 > 100 µM | UACC-257 > 100 µM | HCT-116 > 100 µM | PC-3 > 100 µM | T47D > 100 µM | NCI/ADR-RES > 100 µM | UO-31 37.4 µM | NCI-H23 57 µM | MDA-N > 100 µM | RPMI-8226 > 100 µM
